Test results from patent EP2212334B1, “PROTEASOME INHIBITORS” (Millennium Pharmaceuticals, Inc., priority 2007, dated 2009).

Target: T1, rat spleen 20S immunoproteasome (Rattus norvegicus, UniProt P28064+P28077)
T1 construct: rat spleen 20S immunoproteasome (Boston Biochem, 0.25 nM final); purchased Boston Biochem; host or cells: rat spleen (tissue-derived 20S immunoproteasome)
Experiment: Rat 20S (PA28 activation) β1i and β5i Proteasome Assays (result stated for one or both)
Type: biochemical
Settings: human PA28 activator, Ac-PAL-AMC (β1i) or Ac-ANW-AMC (β5i) substrate, not stated which of the two assays
Experimental: Rat 20S (PA28 activation) β1i Proteasome Assay
(§1) To 1 µL of test compound dissolved in DMSO in a 384-well black microtiter plate is added 25 µL of assay buffer at 37 °C containing human PA28 activator (Boston Biochem, 12 nM final) with Ac-PAL-AMC (•1i selective substrate) (40 µM final), followed by 25 µL of assay buffer at 37 °C containing rat spleen 20S immunoproteasome (Boston Biochem, 0.25 nM final). Assay buffer is composed of 20 mM HEPES, 0.5 mM EDTA and 0.01% BSA, pH7.4. The reaction is followed on a BMG Galaxy plate reader (37 °C, excitation 380 nm, emission 460 nm, gain 20). Percent inhibition is calculated relative to 0% inhibition (DMSO) and 100% inhibition (10 µM bortezomib) controls.
Rat 20S (PA28 activation) β5i Proteasome Assay
as §1, with “Ac-ANW-AMC •5i” for “Ac-PAL-AMC (•1i”, “substrate (30” for “substrate) (40”, “final)” for “final),”, “(37°C,” for “(37 °C,”

SMILES | IC50 [nM]
CC(C)C[C@H](NC(=O)C(C)(C)NC(=O)OCc1ccccc1)B(O)O [Compound 32, ((1R)-1-[(2-([(benzyloxy)carbonyl]amino)-2-methylpropanoyl)amino]-3-methylbutyl)boronic acid] | ≤ 1000
CC(C)C[C@H](NC(=O)C1(NC(=O)c2ccccc2C(F)(F)F)CC1)B(O)O [Compound 30, ((1R)-3-methyl-1-{[(1-{[2-(trifluoromethyl)benzoyl]amino}cyclopropyl)-carbonyl]amino)butyl)boronic acid] | ≤ 1000
Cc1ccc(C[C@H](NC(=O)C2(NC(=O)c3cnccn3)CC2)B(O)O)cc1 [Compound 19, {(1R)-2-(4-methylphenyl)-1-[({1-[(pyrazin-2-ylcarbonyl)amino]cyclopropyl}-carbonyl)amino]ethyl}boronic acid] | ≤ 10000
CC(C)C[C@H](NC(=O)[C@]1(NC(=O)c2cnccn2)C[C@H]1c1ccccc1)B(O)O [Compound 3, {(1R)-3-methyl-1-[(((1S,2S)-2-phenyl-1-[(pyrazin-2-ylcarbonyl)amino]-cyclopropyl}carbonyl)amino]butyl)boronic acid] | ≤ 1000
CC(C)C[C@H](NC(=O)C(C)(C)NC(=O)c1cnc2ccccc2n1)B(O)O [Compound 21, [(1R)-3-methyl-1-({2-methyl-2-[(quinoxalin-2-ylcarbonyl)amino]propanoyl}-amino)butyl]boronic acid] | ≤ 1000
CC(C)C[C@H](NC(=O)C1(NC(=O)OCc2ccccc2)CCC1)B(O)O [Compound 18, ((1R)-1-{[(1-{[(benzyloxy)carbonyl]amino}cyclobutyl)carbonyl]amino}-3-methylbutyl)boronic acid] | ≤ 1000
Cc1cccc(C[C@H](NC(=O)C2(NC(=O)c3ccc(Cl)cc3)CC2)B(O)O)c1 [Compound 2, [(1R)-1-[((1-[(4-chlorobenzoyl)amino]cyclopropyl)carbonyl)amino]-2-(3-methylphenyl)ethyl]boronic acid] | ≤ 10000
CC(C)C[C@H](NC(=O)C(C)(C)NC(=O)c1ccc(Cl)cc1)B(O)O [Compound 25, [(1R)-1-({2-[(4-chlorobenzoyl)amino]-2-methylpropanoyl]amino)-3-methylbutyl]boronic acid] | ≤ 1000
CC(C)C[C@H](NC(=O)C1(NC(=O)Cc2ccccc2)CC1)B(O)O [Compound 22, {(1R)-3-methyl-1-[({1-[(phenylacetyl)amino]cyclopropyl}carbonyl)amino]-butyl}boronic acid] | ≤ 1000
CC(C)C[C@H](NC(=O)C(C)(C)NC(=O)c1cnccn1)B(O)O [Compound 28, [(1R)-3-methyl-1-({2-methyl-2-[(pyrazin-2-ylcarbonyl)amino]propanoyl}-amino)butyl]boronic acid] | ≤ 1000
